# In patent US20250221413A1, “Use and Preparation Method of Sulfoxamyl, and Oxidation System” (priority 2023, published 2025):
# Several values for one entry are separate records, joined by “and”; a condition that tells them apart may be missing. Identical values can stand only once. Entries after “also recorded” stand apart in the source; their conditions may differ.
# Assays:
# [1] = Acute oral toxicity test, probability unit method (Bliss method), LD50 by Probit regression; assay type: in vivo, SD rats; conditions: both sexes, Sprague-Dawley, rat, in vivo, po; SD rats, Probit regression
# Method: (§1) Materials: the test agent 98% sulfoxamyl technical, batch number 20230708-1, was provided by Ningxia Hugerise Chemical Co., Ltd. Experimental animals: SPF-grade SD rats, half male and half female, weighing 180 g to 220 g, were provided by Jinan Pengyue Experimental Animal Breeding Co., Ltd., license number SCXK (Lu) 20190003. Rearing environment: the rats were housed in an SPF-grade animal room with free access to water and food, a temperature of 20° C. to 25° C., a humidity of 40% to 60%, and a 12 h/12 h light cycle. Feed: conventional pellet feed was provided by Jinan Pengyue Experimental Animal Breeding Co., Ltd.
# (§2) The test was conducted in accordance with “Toxicological test methods of pesticides for registration, GB15670.5-2017”, “Acute toxicity test, GB15193.3-2003” and relevant acute toxicity research data.
# (§3) Methods: a single oral fixed-dose procedure was conducted to preliminarily explore the toxic dose range of sulfoxamyl. LD50 and confidence limits were calculated by using the probability unit method (Bliss method). SD rats were randomly divided into 5 groups, 10 rats in each group, half of them were male and half were female. The dosages administered to each group were 474.61 mg/kg, 632.81 mg/kg, 843.75 mg/kg, 1,125 mg/kg, and 1,500 mg/kg. The common ratio value among each dose group was 0.75. After a single oral administration, the mortality rate of the experimental animals was recorded within 24 h and 14 days after administration, while the general condition of the animals was observed, and the food intake and body weight changes were recorded.
# (§4) According to the above test dose, number of animals, number of deaths and other data, SPSS statistical software was used to calculate LD50 by Probit regression, and the results are shown in Table 3.
# SD rats [2] = assay: as above; assay type: in vivo; conditions: for Death count: 24 h
# Method: as §1, §2, §3, §4
# [3] = Acute skin toxicity test (limit test); assay type: in vivo, SD rats; conditions: both sexes, rat, in vivo, topical, 2000 mg/kg; SD rats, 24 h exposure, 14 days observation; read-out: acute percutaneous toxicity LD50
# Method: as §1, §2
# (§5) Method: the sulfoxamyl was ground into powder, passed through a 200-mesh sieve, and fully moistened with 0.5% tragacanth solution to ensure desirable contact between the drug and the skin. The dose limit of the drug's transdermal toxicity was preliminarily determined through a limit test. According to the “Toxicological test methods of pesticides for registration, GB/T 15670.5-2017”, 2,000 mg/kg was selected as the dose limit. 10 SD rats were selected, half male and half female. After removing the fur and preparing the skin on the midline of the rats' backs, the prepared skin area was 36 cm^2 to 40 cm^2. The drug was evenly applied to the fur-removed area and covered and fixed with multiple layers of sterile gauze; after 24 h of exposure to the poison, the residual drug on the skin was removed; the rats were observed once a day for 14 consecutive days, and their poisoning reaction, development process, and death were recorded.
# SD rats [4] = assay: Acute skin toxicity test (limit test); assay type: in vivo
# Method: as §1, §2, §5
# [5] = test system: Meloidogyne incognita eggs; assay: Inhibitory effect on hatching of Meloidogyne incognita eggs; assay type: in vivo
# Description: Materials: the tested nematodes were collected from three different areas, namely cucumber crops in Dawenkou Town, Tai'an City, Shandong Province, and were all identified as southern root-knot nematodes (Meloidogyne incognita). The diseased roots were washed, cut into small sections of 0.5 cm to 1 cm, rinsed in 1% NaClO solution for about 30 s to 60 s, and rinsed with 200-mesh and 500-mesh sieves to collect nematode eggs for later use.
# The agent was 98% sulfoxamyl technical, and the comparison agents were 96% oxamyl technical and 87% fosthiazate technical.
# [6] = Half-life test (hydrolysis in neutral distilled water, HPLC); assay type: physicochemical
# Description: A 98% sulfoxamyl sample was quantitatively dissolved in neutral distilled water, and samples were taken and injected at certain time intervals under HPLC detection. Data were collected according to the area normalization method based on the integrated sulfoxamyl peak area ratio.
# [7] = Meloidogyne incognita, 168 h, egg hatching, 7 d
smiles,measurement,setting,value
"CNC(=O)O/N=C(/C(=O)N(C)C)S(C)(=O)=O [Sulfoxamyl, N,N-dimethyl-2-[[[(methylamino)carbonyl]oxy]imino]-2-(methylsulfonyl)acetamide]",LD50 at 14 days,[1],822 mg/kg
same,toxicity level (acute oral),SD rats [2]; GB15670-1995 classification,low toxic; also recorded: Low Toxicity
same,Probit Estimation for dose,SD rats [2]; Probability 0.010,379.474 mg/kg
same,Probit Estimation for log(dose),SD rats [2]; Probability 0.010,2.579
same,Probit Estimation for dose,SD rats [2]; Probability 0.020,415.442 mg/kg
same,Probit Estimation for log(dose),SD rats [2]; Probability 0.020,2.619
same,Probit Estimation for dose,SD rats [2]; Probability 0.030,440.010 mg/kg
same,Probit Estimation for log(dose),SD rats [2]; Probability 0.030,2.643
same,Probit Estimation for dose,SD rats [2]; Probability 0.040,459.445 mg/kg
same,Probit Estimation for log(dose),SD rats [2]; Probability 0.040,2.662
same,Probit Estimation for dose,SD rats [2]; Probability 0.050,475.885 mg/kg
same,Probit Estimation for log(dose),SD rats [2]; Probability 0.050,2.678
same,Probit Estimation for dose,SD rats [2]; Probability 0.060,490.341 mg/kg
same,Probit Estimation for log(dose),SD rats [2]; Probability 0.060,2.690
same,Probit Estimation for dose,SD rats [2]; Probability 0.070,503.377 mg/kg
same,Probit Estimation for log(dose),SD rats [2]; Probability 0.070,2.702
same,Probit Estimation for dose,SD rats [2]; Probability 0.080,515.342 mg/kg
same,Probit Estimation for log(dose),SD rats [2]; Probability 0.080,2.712
same,Probit Estimation for dose,SD rats [2]; Probability 0.090,526.471 mg/kg
same,Probit Estimation for log(dose),SD rats [2]; Probability 0.090,2.721
same,Probit Estimation for dose,SD rats [2]; Probability 0.100,536.928 mg/kg
same,Probit Estimation for log(dose),SD rats [2]; Probability 0.100,2.730
same,Probit Estimation for dose,SD rats [2]; Probability 0.150,582.478 mg/kg
same,Probit Estimation for log(dose),SD rats [2]; Probability 0.150,2.765
same,Probit Estimation for dose,SD rats [2]; Probability 0.200,621.421 mg/kg
same,Probit Estimation for log(dose),SD rats [2]; Probability 0.200,2.793
same,Probit Estimation for dose,SD rats [2]; Probability 0.250,656.898 mg/kg
same,Probit Estimation for log(dose),SD rats [2]; Probability 0.250,2.817
same,Probit Estimation for dose,SD rats [2]; Probability 0.300,690.481 mg/kg
same,Probit Estimation for log(dose),SD rats [2]; Probability 0.300,2.839
same,Probit Estimation for dose,SD rats [2]; Probability 0.350,723.131 mg/kg
same,Probit Estimation for log(dose),SD rats [2]; Probability 0.350,2.859
same,Probit Estimation for dose,SD rats [2]; Probability 0.400,755.539 mg/kg
same,Probit Estimation for log(dose),SD rats [2]; Probability 0.400,2.878
same,Probit Estimation for dose,SD rats [2]; Probability 0.450,788.276 mg/kg
same,Probit Estimation for log(dose),SD rats [2]; Probability 0.450,2.897
same,Probit Estimation for dose,SD rats [2]; Probability 0.500,821.879 mg/kg
same,Probit Estimation for log(dose),SD rats [2]; Probability 0.500,2.915
same,Probit Estimation for dose,SD rats [2]; Probability 0.550,856.914 mg/kg
same,Probit Estimation for log(dose),SD rats [2]; Probability 0.550,2.933
same,Probit Estimation for dose,SD rats [2]; Probability 0.600,894.044 mg/kg
same,Probit Estimation for log(dose),SD rats [2]; Probability 0.600,2.951
same,Probit Estimation for dose,SD rats [2]; Probability 0.650,934.112 mg/kg
same,Probit Estimation for log(dose),SD rats [2]; Probability 0.650,2.970
same,Probit Estimation for dose,SD rats [2]; Probability 0.700,978.282 mg/kg
same,Probit Estimation for log(dose),SD rats [2]; Probability 0.700,2.990
same,Probit Estimation for dose,SD rats [2]; Probability 0.750,1028.295 mg/kg
same,Probit Estimation for log(dose),SD rats [2]; Probability 0.750,3.012
same,Probit Estimation for dose,SD rats [2]; Probability 0.800,1087.001 mg/kg
same,Probit Estimation for log(dose),SD rats [2]; Probability 0.800,3.036
same,Probit Estimation for dose,SD rats [2]; Probability 0.850,1159.674 mg/kg
same,Probit Estimation for log(dose),SD rats [2]; Probability 0.850,3.064
same,Probit Estimation for dose,SD rats [2]; Probability 0.900,1258.055 mg/kg
same,Probit Estimation for log(dose),SD rats [2]; Probability 0.900,3.100
same,Main clinical symptom,SD rats [2]; oral 474.61 mg/kg,Asymptomatic
same,Death count,"SD rats [2]; oral 474.61 mg/kg, 474.61 mg/kg",no experimental animals and 0/10
same,Main clinical symptom,SD rats [2]; oral 632.81 mg/kg,"Intense abdominal breathing,"
same,Death count,"SD rats [2]; oral 632.81 mg/kg, 632.81 mg/kg",3 and 3/10
same,Main clinical symptom,SD rats [2]; oral 843.75 mg/kg,"Intense abdominal breathing, malaise, drooling, tremors"
same,Death count,"SD rats [2]; oral 843.75 mg/kg, 843.75 mg/kg",6 and 6/10
same,Main clinical symptom,SD rats [2]; oral 1125 mg/kg,"Intense abdominal breathing, malaise, drooling, tremors"
same,Death count,"SD rats [2]; oral 1125 mg/kg, 1125 mg/kg",7 and 8/10
same,Main clinical symptom,SD rats [2]; oral 1500 mg/kg,"Intense abdominal breathing,"
same,Death count,"SD rats [2]; oral 1500 mg/kg, 1500 mg/kg",all animals and 10/10
same,new deaths 14 days after administration compared to 24 h,"SD rats [2]; oral, all dose groups",no new deaths
same,LD50 at 14 days,[3],> 2000 mg/kg
same,"percutaneous toxicity, in words","SD rats [4]; 2,000 mg/kg",no percutaneous toxicity
same,Main clinical symptom,"SD rats [4]; 2,000 mg/kg on skin, 10 SD rats","skin is intact, normal in color, and without redness or swelling"
same,deaths,"SD rats [4]; 2,000 mg/kg on skin, 10 SD rats, 14 days",none of the 10 rats die
same,Main clinical symptom,"SD rats [4]; 2,000 mg/kg on skin, 10 SD rats, listed as sulfoxamyl",Normal
same,toxicity level (acute percutaneous),SD rats [4]; GB15670-1995 classification,low toxic; also recorded: Low Toxicity
same,Number of hatched eggs/7 d,"[5]; 6.25 mg/L, 7 d",102 and 92 and 96
same,Number of unhatched eggs/7 d,"[5]; 6.25 mg/L, 7 d",31 and 25 and 33
same,Number of hatched eggs/7 d,"[5]; 12.5 mg/L, 7 d",83 and 85 and 88
same,Number of unhatched eggs/7 d,"[5]; 12.5 mg/L, 7 d",32 and 33 and 40
same,Number of hatched eggs/7 d,"[5]; 25 mg/L, 7 d",85 and 79 and 86
same,Number of unhatched eggs/7 d,"[5]; 25 mg/L, 7 d",45 and 41 and 38
same,Number of hatched eggs/7 d,"[5]; 50 mg/L, 7 d",57 and 55 and 49
same,Number of unhatched eggs/7 d,"[5]; 50 mg/L, 7 d",81 and 75 and 77
same,Number of hatched eggs/7 d,"[5]; 100 mg/L, 7 d",44 and 40 and 42
same,Number of unhatched eggs/7 d,"[5]; 100 mg/L, 7 d",93 and 85 and 88
same,IC50,[5]; [7],59.5 mg/L
same,IC90,[5]; [7],511 mg/L
same,"inhibitory effect on hatching of nematode eggs, in words",[5]; in vivo,desirable inhibitory effect
same,time to complete decomposition,[6]; neutral conditions,about 8 h
same,Changes in ratio of sulfoxamyl peak area under HPLC,"[6]; neutral distilled water, 25° C., Time 0 h",99.86%
same,Changes in ratio of sulfoxamyl peak area under HPLC,"[6]; neutral distilled water, 25° C., Time 0.5 h",73%
same,Changes in ratio of sulfoxamyl peak area under HPLC,"[6]; neutral distilled water, 25° C., Time 1 h",63%
same,Changes in ratio of sulfoxamyl peak area under HPLC,"[6]; neutral distilled water, 25° C., Time 2 h",48%
same,Changes in ratio of sulfoxamyl peak area under HPLC,"[6]; neutral distilled water, 25° C., Time 3 h",32%
same,Changes in ratio of sulfoxamyl peak area under HPLC,"[6]; neutral distilled water, 25° C., Time 4 h",20%
same,Changes in ratio of sulfoxamyl peak area under HPLC,"[6]; neutral distilled water, 25° C., Time 5 h",11%
same,Changes in ratio of sulfoxamyl peak area under HPLC,"[6]; neutral distilled water, 25° C., Time 6 h",5%
same,Changes in ratio of sulfoxamyl peak area under HPLC,"[6]; neutral distilled water, 25° C., Time 7 h",4%
same,Changes in ratio of sulfoxamyl peak area under HPLC,"[6]; neutral distilled water, 25° C., Time 8 h",3%
same,half-life,"[6]; neutral distilled water, neutral aqueous solution, 25° C.",2 h
